Structures can show the parent of a compound that is named as a salt.
Assays:
[1] = Phase 1 single dose PK study, Form II tablets vs Form I capsule, healthy subjects; details: human, in vivo
Procedure: Tablets comprising CYT-0387 dihydrochloride monohydrate Form II (doses equivalent to 100, 150, 200, and 300 mg of the free base) and capsules comprising CYT-0387 dihydrochloride anhydrous Form I (dose equivalent to 300 mg of the free base) were evaluated in a Phase 1, single dose study in healthy subjects.
Intensive PK and PD sampling occurred from 0.5 hour up to 36 hours post dose. Safety was monitored throughout the study. A parametric analysis of variance (ANOVA) using a mixed-effects model was used to fit to the natural logarithmic transformation of PK parameters (AUC and Cmax). The 90% confidence intervals were constructed for the ratio of geometric means of CYT-0387 dihydrochloride monohydrate Form II tablets at 100, 150, 200 and 300 mg vs CYT-0387 dihydrochloride anhydrous Form I capsule at 300 mg, using equivalence bounds of 70% to 143% for AUC and Cmax. The pharmacokinetic data is represented in Table 5.

[2] = Solid form hygroscopicity and stability; format: physicochemical; details: conditions suitable for manufacturing and/or storage
Procedure: Dynamic Vapor Sorption: The hygroscopicity of N-(cyanomethyl)-4-(2-(4-morpholinophenylamino)pyrimidin-4-yl)benzamide dihydrochloride monohydrate Form II was evaluated at room temperature using a dynamic vapor sorption (DVS) instrument (TGA Q5000 TA Instruments, New Castle, Del.). Water adsorption and desorption were studied as a function of relative humidity (RH) over the range of 0 to 90% at room temperature. The humidity in the chamber was increased from the initial level 50% RH) to 60% RH and held until the solid and atmosphere reached equilibration. The equilibrium test was continued until passed or expired after 10 hours. At this point, RH was raised 10% higher and the process was repeated until 90% RH was reached and equilibrated. During this period, the water sorption was monitored. For desorption, the relative humidity was decreased in a similar manner to measure a full sorption/desorption cycle. All experiments were operated in dm/dt mode (mass variation over time) to determine the equilibration endpoint. Approximately 4 mg of solid CYT-0387 was used. Data analysis was conducted using Universal Analysis 2000 Version 4.7A (TA Instruments, New Castle, Del., USA).

[3] = Mass balance/recovery, metabolite profile, pharmacokinetics and safety of radiolabeled CYT-0387; format: in vivo, human
Procedure: CYT-0387 is a selective small molecule inhibitor of Janus kinase 1 and 2 (JAK1/JAK2) currently under investigation to treat myelofibrosis. This study evaluated the mass balance/recovery, metabolite profile, pharmacokinetics, and safety of radiolabeled CYT-0387 in humans.
Six healthy individuals (subjects) received a single oral dose of 200 mg CYT-0387 containing ˜100 μCi of [^14C]-CYT-0387. Blood samples were collected up to 21 days or until plasma radioactivity in 2 consecutive samples was below detection limit or urine and feces sampling was discontinued. Urine/feces samples were collected up to 21 days or until ≧90% administered dose was recovered in feces and urine and radioactivity in 2 consecutive sampling intervals were ≦1% administered dose. Plasma concentrations of CYT-0387 and metabolites were measured using LC-MS/MS and total radioactivity assessed by liquid scintillation counting. Metabolite profiling was performed in select urine, feces, and plasma samples. Safety assessments were performed throughout the study.

[4] = system: phospho-SMAD1/5/8 in HepG2 cells; assay: BMP6-mediated phospho-SMAD1/5/8 levels in HepG2 cells (immunoblot); format: cell-based; details: for phospho-SMAD1/5/8 levels (normalized percentage): HepG2, 10 ng/mL BMP6 30 minutes, 100% = vehicle
Procedure: HepG2 cells were preincubated for 2 hours with increasing concentrations of CYT-0387 (0.02 to 10 μM CYT387) in the presence of 1% FBS and then stimulated for 30 minutes with 10 ng/mL of BMP6. Protein was extracted from the lysed cells and analyzed using immunoblot analysis with the antibodies specific for phospho-SMAD1 (Ser463/465), phospho-SMAD5 (Ser463/465) and phospho-SMAD8 (Ser465/467) and β-actin. Raw phospho-SMAD1/5/8 levels were quantified using densitometry software (Image Studio) and normalized to β-actin levels. The percentage of phospho-SMAD1/5/8 levels was calculated (100% is equal to phospho-SMAD1/5/8 levels in vehicle treated cells stimulated with 10 ng/mL of BMP6) and summarized in Table 9.

[5] = biological target: T1, ALK2 (Acvr1) (Homo sapiens (Human), UniProt Q04771); assay: Biochemical binding assay (DiscoveRx)
T1 sequence (Q04771 21-509): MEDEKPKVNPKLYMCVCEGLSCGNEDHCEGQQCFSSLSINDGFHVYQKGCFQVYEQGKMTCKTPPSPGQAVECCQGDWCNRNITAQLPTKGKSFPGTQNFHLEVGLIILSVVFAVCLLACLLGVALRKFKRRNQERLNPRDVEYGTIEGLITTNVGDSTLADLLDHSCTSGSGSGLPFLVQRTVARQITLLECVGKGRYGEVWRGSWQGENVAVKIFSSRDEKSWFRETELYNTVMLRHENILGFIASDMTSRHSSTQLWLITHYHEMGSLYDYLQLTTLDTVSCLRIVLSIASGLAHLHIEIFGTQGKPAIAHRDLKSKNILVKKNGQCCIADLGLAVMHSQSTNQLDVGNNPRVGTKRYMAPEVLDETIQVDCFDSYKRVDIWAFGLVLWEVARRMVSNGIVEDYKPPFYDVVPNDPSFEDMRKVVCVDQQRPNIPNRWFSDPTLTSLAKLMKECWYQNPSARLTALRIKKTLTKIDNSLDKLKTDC
Procedure: (§1) In addition, biochemical binding assays (DiscoveRx) and in vitro enzyme inhibition assays (LanthaScreen, Life Technologies) were conducted to determine the binding affinity and inhibition activities of CYT-0387 to Type-I BMPR-kinases (ALK2, ALK3, and ALK6) were conducted. Transforming growth factor beta receptor 1 (TGFBR1, ALK5) was used as a control to determine the selectivity to Type-I BMPR-kinases.

[6] = biological target: T2, ALK3 (BMPR1a) (Homo sapiens (Human), UniProt P36894); assay: Biochemical binding assay (DiscoveRx)
T2 sequence (P36894 24-532): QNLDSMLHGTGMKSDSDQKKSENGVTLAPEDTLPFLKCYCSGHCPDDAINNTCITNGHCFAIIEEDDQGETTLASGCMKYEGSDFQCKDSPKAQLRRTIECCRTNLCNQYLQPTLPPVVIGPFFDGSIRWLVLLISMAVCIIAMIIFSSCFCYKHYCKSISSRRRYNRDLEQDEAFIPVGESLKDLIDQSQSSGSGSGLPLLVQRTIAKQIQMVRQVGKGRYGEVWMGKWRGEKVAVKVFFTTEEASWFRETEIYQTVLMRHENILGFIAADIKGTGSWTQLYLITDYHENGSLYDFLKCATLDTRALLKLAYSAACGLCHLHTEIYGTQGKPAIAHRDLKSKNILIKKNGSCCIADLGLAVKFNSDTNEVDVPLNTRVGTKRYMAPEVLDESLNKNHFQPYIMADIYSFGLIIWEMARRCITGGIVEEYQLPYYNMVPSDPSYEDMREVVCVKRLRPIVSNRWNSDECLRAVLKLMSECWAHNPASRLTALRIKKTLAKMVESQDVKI
Procedure: as §1

[7] = biological target: T3, ALK6 (BMPR1B) (Homo sapiens (Human), UniProt O00238); assay: Biochemical binding assay (DiscoveRx)
T3 sequence (O00238 14-502): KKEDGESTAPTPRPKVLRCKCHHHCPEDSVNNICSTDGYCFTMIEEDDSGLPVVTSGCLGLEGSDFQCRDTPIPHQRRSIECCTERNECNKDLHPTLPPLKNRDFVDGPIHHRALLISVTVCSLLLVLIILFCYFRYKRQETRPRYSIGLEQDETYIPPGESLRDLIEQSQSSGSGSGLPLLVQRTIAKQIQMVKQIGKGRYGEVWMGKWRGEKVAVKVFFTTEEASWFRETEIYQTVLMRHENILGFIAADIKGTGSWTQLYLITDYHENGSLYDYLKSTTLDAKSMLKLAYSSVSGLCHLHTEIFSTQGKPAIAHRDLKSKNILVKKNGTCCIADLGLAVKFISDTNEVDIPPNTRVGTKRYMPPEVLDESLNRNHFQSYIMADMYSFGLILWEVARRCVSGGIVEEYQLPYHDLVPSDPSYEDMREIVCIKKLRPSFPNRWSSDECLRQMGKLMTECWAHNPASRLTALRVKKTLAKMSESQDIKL
Procedure: as §1

[8] = biological target: T1, ALK2 (Acvr1); assay: In vitro enzyme inhibition assay (LanthaScreen); format: biochemical; details: n = 3
Procedure: as §1

[9] = biological target: T2, ALK3 (BMPR1a); assay: In vitro enzyme inhibition assay (LanthaScreen); format: biochemical; details: n = 3
Procedure: as §1

[10] = biological target: T3, ALK6 (BMPR1B); assay: In vitro enzyme inhibition assay (LanthaScreen); format: biochemical; details: n = 3
Procedure: as §1

[11] = biological target: TGFBR1 (Homo sapiens (Human), UniProt P36897); assay: In vitro enzyme inhibition assay (LanthaScreen); format: biochemical; details: TGFBR1, n = 3
TGFBR1, sequence (P36897 34-503): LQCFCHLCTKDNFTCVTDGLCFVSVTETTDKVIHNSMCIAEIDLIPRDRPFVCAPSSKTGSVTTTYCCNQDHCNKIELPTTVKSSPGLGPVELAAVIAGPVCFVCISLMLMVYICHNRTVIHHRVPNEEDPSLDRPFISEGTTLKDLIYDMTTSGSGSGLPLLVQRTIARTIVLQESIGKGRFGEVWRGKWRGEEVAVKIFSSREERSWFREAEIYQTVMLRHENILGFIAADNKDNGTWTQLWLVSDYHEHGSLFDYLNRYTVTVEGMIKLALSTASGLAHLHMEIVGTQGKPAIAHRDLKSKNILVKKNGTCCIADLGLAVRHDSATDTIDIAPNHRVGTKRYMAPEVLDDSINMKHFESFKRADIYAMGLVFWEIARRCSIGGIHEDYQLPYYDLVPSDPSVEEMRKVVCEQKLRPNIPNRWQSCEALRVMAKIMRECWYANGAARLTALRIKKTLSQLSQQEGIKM

[12] = system: hyperproliferative diseases (PV, ET, PMF), myelofibrosis; details: cited from earlier work
[13] = single oral dose 200 mg, healthy subjects

N#CCNC(=O)c1ccc(-c2ccnc(Nc3ccc(N4CCOCC4)cc3)n2)cc1 [CYT-0387 Form II, N-(cyanomethyl)-4-(2-(4-morpholinophenylamino)pyrimidin-4-yl)benzamide dihydrochloride monohydrate Form II]
bioavailability compared to CYT-0387 dihydrochloride anhydrous Form I and CYT-0387 free base [1]: increased bioavailability | thermodynamic stability of the dihydrochloride salt form [2]: thermodynamically stable form

N#CCNC(=O)c1ccc(-c2ccnc(Nc3ccc(N4CCOCC4)cc3)n2)cc1 [CYT-0387, N-(cyanomethyl)-4-(2-(4-morpholinophenylamino)pyrimidin-4-yl)benzamide]
excreted in feces ([3]; feces): 12.6 % of the dose | recovery of radioactivity in feces ([3]; feces): 69.3% | overall recovery of radioactivity ([3]; feces and urine): 96.7% | share of circulating radioactivity ([3]; plasma): 17.3% | time of maximum concentration of drug-derived radioactivity in plasma ([3]; postdose, single oral 200 mg [14C]-CYT-0387): 2.5 h | most frequently reported AEs [3, 13]: dizziness, headache, and nausea | serious or severe adverse events [3, 13]: No Grade 3 or 4 AEs, SAEs, or AEs leading to study discontinuation | tolerability [3, 13]: well tolerated | recovery of radioactivity in urine ([3]; urine): 27.5% | phospho-SMAD1/5/8 levels (normalized percentage) ([4]; 0.020 μM): 83% | phospho-SMAD1/5/8 levels (normalized percentage) ([4]; 0.039 μM): 80% | phospho-SMAD1/5/8 levels (normalized percentage) ([4]; 0.078 μM): 91% | phospho-SMAD1/5/8 levels (normalized percentage) ([4]; 0.156 μM): 96% | phospho-SMAD1/5/8 levels (normalized percentage) ([4]; 0.313 μM): 88% | phospho-SMAD1/5/8 levels (normalized percentage) ([4]; 0.625 μM): 91% | phospho-SMAD1/5/8 levels (normalized percentage) ([4]; 1.25 μM): 65% | phospho-SMAD1/5/8 levels (normalized percentage) ([4]; 2.5 μM): 52% | phospho-SMAD1/5/8 levels (normalized percentage) ([4]; 5.0 μM): 40% | phospho-SMAD1/5/8 levels (normalized percentage) ([4]; 10.0 μM): 31% | effect on BMP6-mediated phospho-SMAD1/5/8 levels ([4]; 0.02 to 10 μM, HepG2): dose-dependent inhibition | Kd [5]: 0.025 µM | Kd [6]: 1 µM | Kd [7]: 0.019 µM | IC50 [8]: 0.008 µM | IC50 [9]: 0.405 µM | IC50 [10]: 0.107 µM | IC50 [11]: 0.205 µM | efficacy in treating hyperproliferative diseases (PV, ET, PMF) ([12]; clinical studies): effective | anemia and/or spleen responses ([12]; patients having myelofibrosis): improvement
